A word on the EC50: it is the concentration giving half of the maximal effect. A lower EC50 goes with greater potency.

The values below come from patent US10336735B2, “Small molecule inhibitors of fibrosis” (THE CALIFORNIA INSTITUTE FOR BIOMEDICAL RESEARCH, priority 2014, dated 2019).

Where only a bound is given, the exact number is not on record here.

This assay relates to primary human lung fibroblasts and primary rodent HSCs. In words: High content imaging assay (α-SMA staining, cell morphology) of fibroblast to myofibroblast transdifferentiation, confirmed by Western blot and RT-PCR. Particulars: Homo sapiens, Fibroblast; imaging and western based activity. The text has this: High content imaging assays have been established, using primary human lung fibroblasts and primary rodent HSCs, that enable the identification of small molecules that either inhibit myofibroblast formation/activation or induce the reversion of activated myofibroblasts to a quiescent fibroblast state. Conditions, involving serum starvation and subsequent TGF-β treatment, have been identified that facilitate robust in vitro transdifferentiation in a miniaturized (384 well plate) format that is amenable to high throughput small molecule screening. The inhibition assay is based on α-SMA immunofluorescent staining and cell morphology changes associated with fibroblast to myofibroblast transdifferentiation, Using the selective ALK-5 TGF-β1 receptor inhibitor ([…]) as a positive control, the inhibition assay has been used to initiate a screen of a collection of ˜100,000 small molecules that consists of bioactive small molecules and a diversity set that has been assembled based on 2D and 3D structural diversity and inherent “drug-likeness” properties. Preliminary screening led to the identification of multiple previously identified anti-fibrotic molecules.
A high content imaging assay, based on α-SMA staining and cell morphological changes associated with fibroblast to myofibroblast transdifferentiation, was established using primary human lung fibroblasts and primary rodent HSCs. Conditions, involving serum starvation and subsequent TGF-β treatment, were identified that facilitate robust in vitro transdifferentiation in a miniaturized (384 well plate) format that is amenable to high throughput small molecule screening. A selective ALK-5 TGF-β1 receptor inhibitor (SB-431542) was used as a positive control. […] This assay was used to evaluate compounds of Formula (I), (Ia), (II), (IIa), (III), (IIIa), (IV), (IVa), (IVb), (V), (Va), (VI), (VIa), (VIb), (VIc), (VII), (VIIa), (VIII), (VIIIa), (IX), (IXa), (X), or (Xa) generated from medicinal chemistry efforts.
The activity of Itraconazole and compounds of Formula (I), (Ia), (II), (IIa), (III), (IIIa), (IV), (IVa), (IVb), (V), (Va), (VI), (VIa), (VIb), (VIc), (VII), (VIIa), (VIII), (VIIIa), (IX), (IXa), (X), or (Xa) was confirmed by analyzing changes in gene expression of multiple genes associated with fibroblast to myofibroblast transdifferentiation using biochemical methods (i.e., Western blot and RT-PCR). These 4-day assays were used to evaluate sets of 6 compounds at a time in 4-point dose response fashion.
The EC50 for (imaging and western based) activity is graded as: +++=<500 nM; ++=500 nM to 5 μM; +=5 to 30 μM); −=>30 μM; NT=Not Tested.
Background: A western blot detects proteins with antibodies after separation by electrophoresis.
On to `CCC(C)n1ncn(-c2ccc(N3CCN(c4ccc(OC[C@@H]5CO[C@@](Cn6nccn6)(c6ccc(Cl)cc6Cl)O5)cc4)CC3)c(F)c2)c1=O` (stereo partly shown) [Compound 69], for which the EC50 lay in the range of 0.5 to 5 µM. Regarding `CCC(C)n1ncn(-c2ccc(N3CCN(c4ccc(OC[C@@H]5CO[C@@](Cn6cccn6)(c6ccc(S(C)(=O)=O)cc6)O5)cc4)CC3)cc2)c1=O` (stereo partly shown) [Compound 98], the EC50 lay within 0.5 to 5 µM. The figure for `CC[C@H](C)n1ncn(-c2ccc(N3CCN(c4ccc(OC[C@@H]5CO[C@@](Cn6cccn6)(c6ccccc6)O5)cc4)CC3)cc2)c1=O` [Compound 168] is less than 0.5 µM. `CC[C@@H](C)n1ncn(-c2ccc(N3CCN(c4ccc(OC[C@@H]5CO[C@](Cn6nccn6)(c6ccccc6)O5)cc4)CC3)cc2)c1=O` [Compound 189] yielded an EC50 of 5 to 30 µM. The figure for `CCC(C)n1ncn(-c2ccc(N3CCN(c4ccc(OC[C@@H]5CO[C@](Cc6ccnnc6)(c6ccc(S(N)(=O)=O)cc6)O5)cc4)CC3)cc2)c1=O` (stereo partly shown) [Compound 120] is more than 30 µM; for `CCC(C)n1ncn(-c2ccc(N3CCN(c4ccc(OC[C@@H]5CO[C@@](Cn6cccn6)(c6ccccc6C#N)O5)cc4)CC3)cc2)c1=O` (stereo partly shown) [Compound 90] it is 0.5 to 5 µM. For `CCC(C)n1ncn(-c2ccc(N3CCN(c4ccc(OC[C@@H]5CO[C@@](CN6CCOCC6)(c6ccc(Cl)cc6Cl)O5)cc4)CC3)cc2)c1=O` (stereo partly shown) [Compound 44], the EC50 was more than 30 µM.

For the compound `CCC(C)n1ncn(-c2ccc(N3CCN(c4ccc(OC[C@@H]5CO[C@@](Cn6cccn6)(c6ccccc6C(N)=O)O5)cc4)CC3)cc2)c1=O` (stereo partly shown) [Compound 101], the EC50 lay in the range of 5 to 30 µM.

In turn, `CCC(CC)n1ncn(-c2ccc(N3CCN(c4ccc(OC[C@@H]5CO[C@@](Cn6cccn6)(c6ccc(C#N)cc6C)O5)cc4)CC3)cc2)c1=O` [Compound 176] had an EC50 of less than 0.5 µM.

In turn, `CCC(C)n1ncn(-c2ccc(N3CCN(c4ccc(OC[C@@H]5CO[C@@](Cn6cccn6)(c6ccccc6C(F)(F)F)O5)cc4)CC3)cc2)c1=O` (stereo partly shown) [Compound 91] gave an EC50 of less than 0.5 µM.

The compound `CCC(C)n1ncn(-c2ccc(N3CCN(c4ccc(OC[C@@H]5CO[C@@](Cc6ccnnc6)(c6ccc(OC)cc6)O5)cc4)CC3)cc2)c1=O` (stereo partly shown) [Compound 129] had an EC50 of less than 0.5 µM. On to `CCC(C)n1ncn(-c2ccc(N3CCN(c4ccc(OC[C@@H]5CO[C@@](Cn6cccn6)(c6ccc(C(N)=O)cc6)O5)cc4)CC3)cc2)c1=O` (stereo partly shown) [Compound 100], for which the EC50 is 0.5 to 5 µM.

With `CCC(CC)n1ncn(-c2ccc(N3CCN(c4ccc(OC[C@@H]5CO[C@@](Cn6nccn6)(c6ccccc6)O5)cc4C#N)CC3)cc2)c1=O` [Compound 155], the EC50 is less than 0.5 µM.

In turn, `CCC(C)n1ncn(-c2ccc(N3CCN(c4ccc(OC[C@@H]5CO[C@@](Cc6ccnnc6)(c6ccccc6Cl)O5)cc4)CC3)cc2)c1=O` (stereo partly shown) [Compound 125] displayed an EC50 of less than 0.5 µM. `CCC(C)n1ncn(-c2ccc(N3CCN(c4ccc(OC[C@@H]5CO[C@@](Cn6nccn6)(c6ccc(C#N)cc6C)O5)cc4)CC3)cc2)c1=O` (stereo partly shown) [Compound 24]: the EC50 was 0.5 to 5 µM. `CCC(C)n1ncn(-c2ccc(N3CCN(c4ccc(OC[C@@H]5CO[C@](Cc6ccnnc6)(c6ccc(S(C)(=O)=O)cc6)O5)cc4)CC3)cc2)c1=O` (stereo partly shown) [Compound 119]: the EC50 lay within 5 to 30 µM. The figure for `CCC(C)n1ncn(-c2ccc(N3CCN(c4ccc(OC[C@@H]5CO[C@@](Cn6nccn6)(c6ccc(Cl)cc6Cl)O5)nc4)CC3)cc2)c1=O` (stereo partly shown) [Compound 54] is 0.5 to 5 µM; for `CC[C@H](C)n1ncn(-c2ccc(N3CCN(c4ccc(OC[C@@H]5CO[C@](Cn6nccn6)(c6ccccc6)O5)cc4)CC3)cc2)c1=O` [Compound 190] it is 0.5 to 5 µM.

Take `CCC(C)n1ncn(-c2ccc(N3CCN(c4ccc(OC[C@@H]5CO[C@@](Cn6nccn6)(c6ccccc6)O5)c(S(C)(=O)=O)c4)CC3)cc2)c1=O` (stereo partly shown) [Compound 64]: the EC50 was 0.5 to 5 µM.

The compound `CCC(C)n1ncn(-c2ccc(N3CCN(c4ccc(OC[C@@H]5CO[C@@](Cn6nccn6)(c6ccccc6)O5)cc4)C(C)C3)cc2)c1=O` (stereo partly shown) [Compound 72] returned an EC50 of 5 to 30 µM. In the case of `CCC(C)n1ncn(-c2ccc(N3CCN(c4ccc(OC[C@@H]5CO[C@@](Cc6ccnnc6)(c6ccccc6C)O5)cc4)CC3)cc2)c1=O` (stereo partly shown) [Compound 136] it was 0.5 to 5 µM; in that of `CCC(C)n1ncn(-c2ccc(N3CCN(c4ccc(OC[C@@H]5CO[C@@](Cn6nccn6)(c6cc(C#N)ccc6Cl)O5)cc4)CC3)cc2)c1=O` (stereo partly shown) [Compound 27], 5 to 30 µM; in that of `CCC(C)n1ncn(-c2ccc(N3CCN(c4ccc(OCCCO[C@@H](Cn5nccn5)c5ccccc5)cc4)CC3)cc2)c1=O` (stereo partly shown) [Compound 142], more than 30 µM.

In turn, `CCC(C)n1ncn(-c2ccc(N3CCN(c4ccc(OC[C@@H]5CO[C@](Cc6ccnnc6)(c6ccccc6OC)O5)cc4)CC3)cc2)c1=O` (stereo partly shown) [Compound 107] yielded a 50% effective concentration (EC50) of 0.5 to 5 µM. The figure for `CCC(C)n1ncn(-c2ccc(N3CCN(c4ccc(OC[C@@H]5CO[C@@](Cn6nccn6)(c6ccccc6)O5)c(C#N)c4)CC3)cc2)c1=O` (stereo partly shown) [Compound 65] is less than 0.5 µM; for `CCC(C)n1ncn(-c2ccc(N3CCN(c4ccc(OC[C@@H]5CO[C@@](Cc6ccnnc6)(c6ccc(Cl)cc6)O5)cc4)CC3)cc2)c1=O` (stereo partly shown) [Compound 123] it is less than 0.5 µM.

With `CCC(C)n1ncn(-c2ccc(N3CCN(c4ccc(OC[C@@H]5CO[C@@](Cn6cccn6)(c6ccc(C(F)(F)F)cc6)O5)cc4)CC3)cc2)c1=O` (stereo partly shown) [Compound 93], the EC50 was less than 0.5 µM. In the case of `CCC(C)n1ncn(-c2ccc(N3CCN(c4ccc(OC[C@@H]5CO[C@@](Cc6ccnnc6)(c6ccc(OC(F)(F)F)cc6)O5)cc4)CC3)cc2)c1=O` (stereo partly shown) [Compound 135] it was less than 0.5 µM.

The compound `CCC(C)n1ncn(-c2ccc(N3CCN(c4ccc(OC[C@@H]5CO[C@@](Cn6nccn6)(c6ccc(Cl)cc6Cl)O5)cc4C#N)CC3)cc2)c1=O` (stereo partly shown) [Compound 56] registered an EC50 of 0.5 to 5 µM. In the case of `CC[C@@H](C)n1ncn(-c2ccc(N3CCN(c4ccc(OC[C@H]5CO[C@](Cn6cccn6)(c6ccccc6)O5)cc4)CC3)cc2)c1=O` [Compound 171] it was less than 0.5 µM. Compound `CCC(C)n1ncn(-c2ccc(N3CCN(c4ccc(OC[C@@H]5CO[C@](Cc6ccnnc6)(c6ccc(Cl)cc6)O5)cc4)CC3)cc2)c1=O` (stereo partly shown) [Compound 103] registered a 50% effective concentration (EC50) of 0.5 to 5 µM. The figure for `O=c1n(-c2ccc(N3CCN(c4ccc(OC[C@@H]5CO[C@@](Cn6nccn6)(c6ccc(Cl)cc6Cl)O5)cc4F)CC3)cc2)cnn1CC1CCCC1` [Compound 154] is less than 0.5 µM. For the compound `CC(CCN)n1ncn(-c2ccc(N3CCN(c4ccc(OC[C@@H]5CO[C@@](Cn6nccn6)(c6ccccc6)O5)cc4)CC3)cc2)c1=O` (stereo partly shown) [Compound 17], the EC50 is 5 to 30 µM. The figure for `CCC(C)n1ncn(-c2ccc(N3CCN(c4ccc(OC[C@@H]5CO[C@@](Cn6ccc(=O)cc6)(c6ccc(Cl)cc6Cl)O5)cc4)CC3)cc2)c1=O` (stereo partly shown) [Compound 41] is less than 0.5 µM; for `CCC(C)n1ncn(-c2ccc(N3CCN(c4ccc(OC[C@@H]5CO[C@](Cc6ccnnc6)(c6ccccc6C(F)(F)F)O5)cc4)CC3)cc2)c1=O` (stereo partly shown) [Compound 112] it is 0.5 to 5 µM; for `C#CCCCn1ncn(-c2ccc(N3CCN(c4ccc(OC[C@@H]5CO[C@@](Cn6cncn6)(c6ccc(N=[N+]=[N-])cc6)O5)cc4)CC3)cc2)c1=O` [Compound 191] it is 0.5 to 5 µM. The figure for `CCC(C)n1ncn(-c2ccc(N3CCN(c4ccc(OC[C@@H]5CO[C@@](Cn6nccn6)(c6ccc(Br)cc6Br)O5)cc4)CC3)cc2)c1=O` (stereo partly shown) [Compound 30] is 0.5 to 5 µM. The figure for `CCC(C)n1ncn(-c2ccc(N3CCN(c4ccc(OC[C@H]5CO[C@](Cn6nccn6)(c6ccccc6)C5)cc4C#N)CC3)cc2)c1=O` (stereo partly shown) [Compound 149] is more than 30 µM; for `CCC(C)n1ncn(-c2ccc(N3CCN(c4ccc(OC[C@@H]5CO[C@@](Cc6ccnnc6)(c6cccc(C(F)(F)F)c6)O5)cc4)CC3)cc2)c1=O` (stereo partly shown) [Compound 133] it is less than 0.5 µM; for `CCC(C)n1ncn(-c2ccc(N3CCN(c4ccc(OC[C@@H]5CO[C@@](Cn6nccn6)(c6ccccc6)O5)cc4)CC3)c(C#N)c2)c1=O` (stereo partly shown) [Compound 71] it is 5 to 30 µM. As to `CCC(C)n1ncn(-c2ccc(N3CCN(c4ccc(OC[C@@H]5CO[C@@](Cn6nccn6)(c6ccc(Cl)cc6Br)O5)cc4)CC3)cc2)c1=O` (stereo partly shown) [Compound 31], the EC50 is less than 0.5 µM. In the case of `CCC(C)n1cnn(-c2ccc(N3CCN(c4ccc(OC[C@@H]5CO[C@@](Cc6ccnnc6)(c6ccccc6)O5)cc4)CC3)cc2)c1=O` (mixture of isomers) [Compound 102] it was 0.5 to 5 µM. In the case of `CCC(C)n1ncn(-c2ccc(OC[C@@H]3CO[C@@](Cn4nccn4)(c4ccc(Cl)cc4Cl)O3)cc2)c1=O` (stereo partly shown) [Compound 6] it was more than 30 µM.
